Experiments:
[1] = test system: Pseudoalteromonas lipolytica (TC8); assay: Anti-adhesion test, strain TC8; assay type: cell-based; details: Pseudoalteromonas lipolytica; for activity at 200 µM: 15 h, read-out: % of adhesion at 200 μM, TC8; for EC50: read-out: EC50 (effective concentration to inhibit 50% of the adhesion), TC8
Procedure: (§1) The anti-adhesion bioassays and toxicity tests are adapted from those disclosed in M. Camps, J.-F. Briand, L. Guentas-Dombrowsky, G. Culioli, A. Bazire and Y. Blache, Mar. Poll.
(§2) Bacterial strains were grown on Väätänen nine-salts solution (VNSS). When the stationary phase was reached, the bacterial suspension was centrifuged. Cells were then diluted in sterile artificial sea water (ASW) and introduced in microtiter plates (sterile black PS; Nunc, Fisher Scientific, France) with the tested compound (at eight concentrations in three replicates) in the presence of three controls: (i) non-specific staining control, (ii) adhesion control, and (iii) positive control. The maximum percentage of solvent (DMSO 2%) used to dilute the tested compound was also tested in triplicate as additional control. After incubation during an optimized adhesion time (moderately 15 h), non-adhered bacteria were eliminated and adhered cells were quantified after SYTO 61 (1 μM) staining. A percentage of inhibition was calculated per well. A sigmoid dose-response curve was obtained by plotting the percentage of inhibition as a function of the log of tested compound concentration, after mean (n=3) and standard deviation (SD) calculation per triplicate for each concentration. EC50 values were then calculated for each compound.

[2] = test system: Paracoccus sp. (4M6); assay: Anti-adhesion test, strain 4M6; assay type: cell-based; details: Paracoccus; for activity at 200 µM: 15 h, read-out: % of adhesion at 200 μM, 4M6; for EC50: read-out: EC50 (effective concentration to inhibit 50% of the adhesion), 4M6
Procedure: as §1, §2

[3] = test system: Pseudoalteromonas ulvae (TC14); assay: Anti-adhesion test, strain TC14; assay type: cell-based; details: Pseudoalteromonas ulvae; for activity at 200 µM: 15 h; for EC50: read-out: EC50 (effective concentration to inhibit 50% of the adhesion)
Procedure: as §2
Pseudoalteromonas ulvae (TC14) was isolated in June 2010 in the Military Harbor of Toulon (Mediterranean Sea, France) as described in F. Brian-Jaisson, A. Ortalo-Magné, L. Guentas-Dombrowsky, F. Armougom, Y. Blache, M. Molmeret, Microb. Ecol., 2014, 68, 94-110.

[4] = test system: marine bacterial strains (TC14, TC8, 4M6, TC5 and TC11); assay: Anti-adhesion test, summary over the strains; assay type: cell-based; details: read-out: inhibition of the adhesion of at least two marine bacterial strains
Procedure: as §2
In examples 64 and 65, the following marine bacterial strains are used.

[5] = test system: Shewanella sp. (TC11); assay: Anti-adhesion test, strain TC11; assay type: cell-based; details: for activity at 200 µM: 15 h, strain TC11, read-out: % of adhesion at 200 μM, TC11; for EC50: read-out: EC50 (effective concentration to inhibit 50% of the adhesion), strain TC11
Procedure: as §2
Shewanella sp. (TC11) was isolated in June 2010 in the Military Harbor of Toulon (Mediterranean Sea, France) as described in F. Brian-Jaisson, A. Ortalo-Magné, L. Guentas-Dombrowsky, F. Armougom, Y. Blache, M. Molmeret, Microb. Ecol., 2014, 68, 94-110.

[6] = test system: Polaribacter sp. (TC5); assay: Anti-adhesion test, strain TC5; assay type: cell-based; details: for activity at 200 µM: 15 h; for EC50: read-out: EC50 (effective concentration to inhibit 50% of the adhesion)
Procedure: as §2
Polaribacter sp. (TC5) was isolated in June 2010 in the Military Harbor of Toulon (Mediterranean Sea, France) as described in F. Brian-Jaisson, A. Ortalo-Magné, L. Guentas-Dombrowsky, F. Armougom, Y. Blache, M. Molmeret, Microb. Ecol., 2014, 68, 94-110.

[7] = Gravimetry (weight loss), corrosion inhibition; details: mild steel in 1N HCl
Procedure: The corrosion rates were determined by electrochemical impedance spectroscopy measurements and gravimetry.
Weight loss measurements were performed on 2.5×2.0×0.1 cm rectangular mild steel coupons. The mild steel coupons were immersed into non-de-aerated HCl 1N solution in absence and presence of different concentrations of compounds of general formula (I). After the elapsed time, the coupons were taken out, washed, dried and weighed accurately. Experiments were duplicated.
Weight loss experiments were done to confirm the corrosion inhibitive properties of AS164.
The inhibition efficiency, IE (%), was estimated from the weight loss experiments using the following equation:
[formula] wherein CR^o and CR are respectively the corrosion rate in the absence and presence of AS164.

| Structure (SMILES) | activity at 200 µM [1] [%] | activity at 200 µM [2] [%] | EC50 [2] [µM] | activity at 200 µM [3] [%] | EC50 [3] [µM] | inhibition at 200 µM [4] [%] | EC50 [1] [µM] | activity at 200 µM [5] [%] | EC50 [5] [µM] | activity at 200 µM [6] [%] | EC50 [6] [µM] | IE % ([7]; 0.1 ppm) [%] | IE % ([7]; 0.3 ppm) [%] | IE % ([7]; 0.5 ppm) [%] | IE % ([7]; 2 ppm) [%] | IE % ([7]; 10 ppm) [%] |
| --- | --- | --- | --- | --- | --- | --- | --- | --- | --- | --- | --- | --- | --- | --- | --- | --- |
| Oc1ccc(CCn2cc(-c3ccc(-c4cn(CCc5ccc(O)c(Br)c5)nn4)cc3)nn2)cc1Br [NT23, 1,4 bis (1-(3-bromo-4-hydroxyphenethyl)-1H-1,2,3-triazol-4-yl) benzene] | 58.3 ± 8.7 | 31.8 ± 3.5 | 59.9 ± 7.7 | 31 ± 6.1 | 40.9 ± 11.4 | ≥ 65 |  |  |  |  |  |  |  |  |  |  |
| COc1ccc(Cn2cc(-c3ccc(-c4cn(Cc5ccc(OC)c(Br)c5)nn4)cc3)nn2)cc1Br [SA8, 1-(3-bromo-4-methoxybenzyl)-4-(4-(1-(3-bromo-4-methoxybenzyl)-1H-1,2,3-triazol-4-yl)phenyl)-1H-1,2,3-triazole] | 24.1 ± 2.6 | 33.1 ± 4.4 | 163 ± 23.6 | 23.3 ± 3.8 | 99.5 ± 4.5 |  | 159 ± 28.5 | 16.4 ± 8 | 122 ± 7.1 | 38.3 ± 0.1 | 152 ± 6.7 |  |  |  |  |  |
| CN(C)CCCOc1ccc(CCn2cc(-c3ccc(-c4cn(CCc5ccc(OCCCN(C)C)cc5)nn4)cc3)nn2)cc1 [SA12, 3-(4-(2-(4-(4-(1-(4-(3-(dimethylamino)propoxy)phenethyl)-1H-1,2,3-triazol-4-yl)phenyl)-1H-1,2,3-triazol-1-yl)ethyl)phenoxy)-N,N-dimethylpropan-1-amine] | 30 ± 21.9 | 14.3 ± 7.3 | 73.2 ± 10.7 | 42.4 ± 8.6 | 187 ± 16.5 |  | 177 ± 80.1 | 41 ± 4.1 | 173 ± 22.4 | 66.2 ± 2.8 |  | 39.30 | 69.97 | 94.65 | 96.89 | 95.73 |
| CN(C)CCCOc1ccc(CCCn2cc(-c3ccc(-c4cn(CCCc5ccc(OCCCN(C)C)c(Br)c5)nn4)cc3)nn2)cc1Br [SA32, 3-(4-(3-(4-(4-(1-(3-(4-(3-(dimethylamino)propoxy)-3-bromophenyl)propyl)-1H-1,2,3-triazol-4-yl)phenyl)-1H-1,2,3-triazol-1-yl)propyl)-2-bromophenoxy)-N,N-dimethylpropan-1-amine] | 17.7 ± 11.1 | 26.7 ± 5.6 | 3.1 ± 8.6 | 34.3 ± 2.6 | 115 ± 20.5 |  | 109 ± 37.2 | 17.4 ± 2.9 | 61.1 ± 18.5 | 53.4 ± 13.8 | 114 ± 28.6 | 79.01 | 95.43 | 96.30 | 96.54 | 95.58 |
| CN(C)CCOc1ccc(CCn2cc(-c3ccc(-c4cn(CCc5ccc(OCCN(C)C)c(I)c5)nn4)cc3)nn2)cc1I [SA45, 2-(4-(2-(4-(4-(1-(4-(2-(dimethylamino)ethoxy)-3-iodophenethyl)-1H-1,2,3-triazol-4-yl)phenyl)-1H-1,2,3-triazol-1-yl)ethyl)-2-iodophenoxy)-N,N-dimethylethanamine] | 30 ± 16.3 | 3.2 ± 4.6 | 14.2 ± 3.2 | 42.1 ± 2.9 | 175 ± 21.2 |  | 135 ± 34.3 | 9.3 ± 0.5 | 129 ± 13.2 | 37.5 ± 13.3 | 147 ± 32.4 | 78.07 | 93.01 | 94.67 | 95.23 | 96.09 |
| CN(C)CCCOc1ccc(CCn2cc(-c3ccc(-c4cn(CCc5ccc(OCCCN(C)C)c(I)c5)nn4)cc3)nn2)cc1I [SA46, 3-(4-(2-(4-(4-(1-(4-(3-(dimethylamino)propoxy)-3-iodophenethyl)-1H-1,2,3-triazol-4-yl)phenyl)-1H-1,2,3-triazol-1-yl)ethyl)-2-iodophenoxy)-N,N-dimethylpropan-1-amine] | 17.4 ± 14.3 | 26.6 ± 3.4 | 48.3 ± 48.9 | 30.2 ± 3.5 | 74.4 ± 8.3 |  | 71.5 ± 4.1 | 5.8 ± 1.2 | 22.2 ± 13.6 | 22.4 ± 14.7 | 70.6 ± 8.9 | 82.23 | 90.47 | 94.51 | 96.05 | 94.96 |
| CN(C)CCOc1ccc(-n2cc(-c3ccc(-c4cn(-c5ccc(OCCN(C)C)cc5)nn4)cc3)nn2)cc1 [SA61, 2-(4-(4-(4-(1-(4-(2-(dimethylamino)ethoxy)phenyl)-1H-1,2,3-triazol-4-yl)phenyl)-1H-1,2,3-triazol-1-yl)phenoxy)-N,N-dimethylethanamine] | 45.6 ± 1.2 | 40.2 ± 0.3 | 179 ± 44.9 | 47.8 ± 1.7 | 194 ± 13.7 |  | 184.4 ± 0.6 | 19.3 ± 16.9 | 140 ± 63.5 | 89.4 ± 0.8 |  | 87.42 | 91.92 | 94.34 | 95.55 | 95.93 |
| CN(C)CCOc1ccc(CCn2cc(-c3ccc(-c4cn(CCc5ccc(OCCN(C)C)c(Cl)c5)nn4)cc3)nn2)cc1Cl [SA63, 2-(4-(2-(4-(4-(1-(4-(2-(dimethylamino)ethoxy)-3-chlorophenethyl)-1H-1,2,3-triazol-4-yl)phenyl)-1H-1,2,3-triazol-1-yl)ethyl)-2-chlorophenoxy)-N,N-dimethylethanamine] | 29 ± 3.2 | 43.6 ± 3.3 | 96.6 ± 36.2 | 30.6 ± 5.3 | 122 ± 10.7 |  | 138 ± 10.6 | 37 ± 1 | 136 ± 5.1 | 37.3 ± 6 | 133 ± 9.2 | 90.68 | 95.02 | 95.82 | 95.98 | 96.95 |
| CN(C)CCCOc1ccc(CCn2cc(-c3ccc(-c4cn(CCc5ccc(OCCCN(C)C)c(Cl)c5)nn4)cc3)nn2)cc1Cl [SA64, 3-(4-(2-(4-(4-(1-(4-(3-(dimethylamino)propoxy)-3-chlorophenethyl)-1H-1,2,3-triazol-4-yl)phenyl)-1H-1,2,3-triazol-1-yl)ethyl)-2-chlorophenoxy)-N,N-dimethylpropan-1-amine] | 20.2 ± 21.1 | 31 ± 12.4 | 43.3 ± 14.6 | 28.4 ± 14 | 147 ± 14.4 |  | 121 ± 76.8 | 42.6 ± 5.6 | 152 ± 20.4 | 42.9 ± 4.5 | 150 ± 8.1 | 90.59 | 94.18 | 95.90 | 96.37 | 96.64 |
| CN(C)CCCOc1ccc(-n2cc(-c3ccc(-c4cn(-c5ccc(OCCCN(C)C)c(Br)c5)nn4)cc3)nn2)cc1Br [SA66, 3-(4-(4-(4-(1-(4-(3-(dimethylamino)propoxy)-3-bromophenyl)-1H-1,2,3-triazol-4-yl)phenyl)-1H-1,2,3-triazol-1-yl)-2-bromophenoxy)-N,N-dimethylpropan-1-amine] | 31.7 ± 2.2 | 24.5 ± 6.9 | 44.2 ± 25.2 | 19 ± 6.5 | 104 ± 4.6 |  | 141 ± 16.5 | 45.5 ± 1.1 | 165 ± 37.8 | 23.3 ± 4 | 50.2 ± 10.9 | 85.79 | 88.30 | 90.41 | 95.16 | 96.48 |
